Data: a melting point compilation (Tetko et al.; mined from patent text by program, amines drawn as free bases though some values may be those of a salt)

Row | Compound | melting point
1 | COc1cccc(COC(=O)c2ncn3c2[C@@H]2CCN2C(=O)c2c(Cl)cccc2-3)c1 | 126 to 127 °C
2 | COC(=O)NC(CCc1ccc(Br)cc1)C(=O)O (configuration not stated) | 136 to 137 °C
3 | Nc1cc(Oc2ccc3c(C(=O)Nc4cccc(C(F)(F)F)c4)cccc3c2)ncn1 | 243 to 244 °C
4 | COc1ccc2c(c1)[C@H](c1ccccc1)CN(C)CC2 | 50 to 51 °C
5 | Cc1cccc(NC(=O)NC2N=C(c3ccccc3)c3ccccc3N(C)C2=O)c1 (configuration not stated) | 207 to 209 °C
6 | O=C(O)/C=C/c1ccc(-c2nc3c(=O)n(CC4CC4)c(=O)n(CC4CC4)c3[nH]2)cc1 | > 250 °C
7 | O=C1Nc2cc(CN3CC=C(c4ccc(Cl)cc4)CC3)cnc2N2CCCCC12 (configuration not stated) | 202 °C
8 | O=C(CNCCO)Nc1ccccn1 | 114 to 115 °C
9 | Cc1ccnc(-c2nc(=O)c3ccccc3s2)c1 | 200 °C
10 | CC1=Nc2ccccc2C1(C)CCCCCC(=O)O (configuration not stated) | 115 to 118 °C
11 | COC1(c2cccc3[nH]ccc23)CCNCC1 | 216 °C
12 | CC(C)(C)OC(=O)N1CCC[C@@H](O)[C@H](N)C1 | 64 to 67 °C
13 | CS(=O)(=O)N1CCN([C@@H](CNC(=O)c2ccc(OCc3ccc(F)cc3)cc2)C(=O)NO)CC1 | 194 °C
14 | COc1ccc2c(c1OC)CN(C=O)CCc1cc(OCc3ccccc3)ccc1CC2 | 140 to 141 °C
15 | COCCn1nnc2cc3c(cc2c1=O)OCN(C1CC1)C3=O | 103 to 105 °C
16 | CCc1noc(C)c1-c1[nH]c2ccccc2c1CC(=O)O | 194 to 197 °C
17 | CC(=O)NC1([N+](=O)[O-])C=C(C)C=CN1 (configuration not stated) | 146 to 149 °C
18 | CS(=O)(=O)Nc1cccc(Nc2nc(NC3CCCC3)c3nc[nH]c3n2)c1 | 234 to 239 °C
19 | COCCNC(=O)CC1CN=C(c2cc3cc(Oc4ccc(S(C)(=O)=O)nc4)cc(OC)c3[nH]2)S1 (configuration not stated) | 175 to 176 °C
20 | O=C(C1CC1)C(C(O)C(Cl)(Cl)Cl)n1cncn1 (configuration not stated) | 173 to 175 °C
21 | O=C1OC(CO)CN2C1=Cc1ccsc1S2(=O)=O (configuration not stated) | 210 to 212 °C

Row | Compound | melting point
22 | CC1(C)C(=O)Oc2ccc3cc(C(=O)NCC(F)(F)F)c(Cn4cncn4)cc3c21 | 200 to 201 °C
23 | NS(=O)(=O)c1ccc(-n2nc(C(F)F)cc2C2CCCCC2)cc1 | 199 to 203 °C
24 | COc1ccc(Br)cc1O | 62 to 64 °C
25 | COc1cc(C=Cc2c(CO)ccc(OC)c2OC)cc(OC)c1OC | 120 to 121 °C
26 | CCCCCCCCCCCCCCCCOCC(CO)COC(C)=O (configuration not stated) | 33 °C
27 | Cc1nsc(-c2ccc(Cl)nn2)n1 | 180 °C
28 | CCCn1cc(Cc2ccc(C(=O)OC)cc2OC)c2cc(CCC(=O)O)ccc21 | 109 to 111 °C
29 | COc1cccc(NC(=O)NC2N=C(c3ccccc3F)c3ccccc3N(C)C2=O)c1 (configuration not stated) | 271 to 273 °C
30 | C=C(CCCCCCCCCCCCCCCC)CC(CO)CO | 64 to 65 °C
31 | O=C(O)CCc1oc(-n2cnc3ccccc32)nc1-c1ccc(Cl)cc1 | 217 to 218 °C
32 | O=C(Nc1ccccc1)c1nc2ccccc2[nH]1 | 201 to 202 °C
33 | CC(C)(C)NS(=O)(=O)c1ccc(-c2cn(-c3cc(-c4ccc(C(F)(F)F)cc4)cc(C(F)(F)F)n3)cn2)s1 | > 250 °C
34 | CCC(Cn1cncn1)(C(=O)O)c1ccc(Cl)cc1Cl (configuration not stated) | 206 to 208 °C
35 | COC(=O)NC1CCCCC1 | 73 to 74 °C
36 | CCC(CC)c1nc(-c2ccncc2)c(-c2ccc(Cl)cc2)n1CC | 239 to 242 °C
37 | CCCCCC(=O)N1C(=O)CC[C@H]1C(=O)O | 85 to 90 °C
38 | Oc1ccc2oc(-c3ccc(O)c4ccccc34)nc2c1 | 182 to 184 °C
39 | Cc1c(-c2ccccc2)c(N2CC[C@H](N(C)C)C2)c2oc(N3CC(O)C3)nc2c1C#N | 219 to 221 °C
40 | Cc1c(C(=O)c2ccc(Br)c3ccccc23)c2cccc(C(F)(F)F)c2n1CCN1CCOCC1 | 160 °C
41 | CCc1noc(-c2cn(-c3nccnn3)cn2)n1 | 181 to 182 °C
42 | N#CC1CN1C(=O)c1ccco1 (configuration not stated) | 73 to 76 °C

Next, values leading:

Row | melting point | Compound
43 | 96 °C | O=C(O)c1cccc(CNC(=O)C2Cc3ccccc3N2S(=O)(=O)c2ccc(-c3cccc(C(F)(F)F)c3)cc2)c1 (configuration not stated)
44 | 89 to 90 °C | CCCCCCCCCOc1ncc(-c2ccc(O)cc2)cn1
45 | 159 to 160 °C | COC(=O)CCC#Cc1ccc(C(=C2CC(C)(C)CC(C)(C)C2)c2ccc(O)cc2)cc1
46 | 261 to 262 °C | COc1cccc2c(=O)[nH]c(C)nc12
47 | 247 to 248 °C | COc1c(S(N)(=O)=O)cc(C(=O)O)c2c1OCCO2
48 | 242 to 243 °C | CCOC(=O)c1csc(N2N=C(c3ccc([N+](=O)[O-])cc3)c3cc4c(cc3CC2C)OCO4)n1 (configuration not stated)
49 | 113 to 114 °C | Cc1c(OCC(F)(F)F)ccnc1CSc1nc2ccccc2n1NCCCO
50 | 160 to 162 °C | CC1(C)CSSC[C@@H](C(=O)O)NC1=O
51 | 179 to 180 °C | Cc1oc(-c2ccco2)nc1/C=C/c1ccc(/C=C/C=C/C=O)cc1
52 | 108 to 110 °C | CCCCc1nc2cc(C(=O)OC)ccc2[nH]1
53 | 95 °C | CCOC(=O)Nc1ccc2oc(Cc3ccccc3)cc2c1
54 | 68 to 70 °C | CC(C)(C)OC(=O)N1CC=C(c2ccc(Br)cc2)CC1
55 | 241 °C | CCN(CC)CC(=O)Nc1ccc2c(c1)C(=O)c1cc(NC(=O)CN(CC)CC)ccc1C2=O
56 | 226 to 227 °C | O=S1(=O)CCON=C1c1nc2ccccc2s1
57 | 161 to 162 °C | COC(=O)C1=C(C)NC(C(C)=O)=C(C(=O)OC)C1c1ccccc1Cl (configuration not stated)
58 | 194 to 204 °C | CCN1CCN(CC/C=C/c2ccc3c(Nc4ccc(Sc5nccn5C)c(Cl)c4)c(C#N)cnc3c2)CC1
59 | 150 to 151 °C | CC(C(=O)O)c1ccc2c(c1)Sc1ncccc1CC2=O (configuration not stated)
60 | 107 to 110 °C | NCc1ccc2c(c1)ncn2-c1cccc(-c2cccnc2)c1
61 | 93 to 94 °C | COc1ccc(CCC(=O)O)cc1OCCCc1cn(-c2ccc(C(F)(F)F)cn2)nc1C(C)C
62 | 153 to 156 °C | O=S(=O)(c1cccc(F)c1)c1ccc2[nH]c3c(c2c1)CCNCC3

Row | melting point | Compound
63 | 197 to 200 °C | COC(=O)c1ccc(C)c(-n2c(C)cc(OCc3ccc(F)cc3CNC(=O)Nc3cc(C(C)(C)C)nn3-c3ccc(O)c(Cl)c3)c(Cl)c2=O)c1
64 | 74.5 to 76 °C | CC(C)C(C)(N)C(N)=O (single isomer, unassigned; (+))
65 | 242 to 245 °C | CCCCc1oc2ccccc2c1C(=O)Nc1ccc2c(Br)c(OCc3nn[nH]n3)ccc2c1
66 | 85 to 86.5 °C | O=c1oc(-c2cccc(C(F)(F)F)c2)ns1
67 | 116 to 118 °C | CC(C)(C)NNC(=O)c1cccc(Cl)c1
68 | 100 to 102 °C | CCOCOC1(C(=O)CO)C(CC)CC2C3CC(CC)C4=CC(=O)C=CC4(C)C3C(O)CC21C (configuration not stated)
69 | 262 to 263 °C | Cc1ccc(NS(=O)(=O)c2ccc(Cl)nc2)c2[nH]cc(C#N)c12
70 | 229 to 230 °C | O=C(CCc1nc2ccccc2s1)Nc1cc(N2CC(c3ccccc3)OC2=O)ccn1 (configuration not stated)
71 | 93 to 96 °C | O=C1NC(=O)C(Cc2ccc(Oc3ccc(Oc4ccc(CC5OC(=O)NC5=O)cc4)cc3)cc2)O1 (configuration not stated)
72 | 230 to 232 °C | N=C(NS(=O)(=O)C=Cc1ccc([N+](=O)[O-])cc1)c1cccc([N+](=O)[O-])c1
73 | 125 to 127 °C | COc1ccc(C(C#N)C2(O)CCCCC2)cc1 (configuration not stated)
74 | 174 to 176 °C | COc1ccc(-c2cn(Cc3ccccc3)c(=O)c3ccccc23)cc1OC
75 | 59 to 60 °C | CCOC(=O)N1CCN(CCCCCCNc2cc(OC)cc3c(C)ccnc23)CC1
76 | 142 to 143 °C | CCCCCS(=O)(=O)NC(=O)/C=C/c1ccc(OCCOC)cc1Nc1ccc(C(F)(F)F)cc1
77 | 245 to 255 °C | CC(C)(c1ccc(C(C)(C)c2ccc3ccccc3c2O)cc1)c1ccc2ccccc2c1O
78 | 108 to 111 °C | O=C(CCCCCCCCC(=O)CC(=O)c1ccccc1)CC(=O)c1ccccc1
79 | 112 to 114 °C | COC(=O)NNc1cc(Cl)c(C)c2c1OC(C)C2 (configuration not stated)
80 | 120 to 123 °C | Cc1nc2c(CCc3ccccc3)cccn2c1CC#N
81 | 190 to 191 °C | Cc1c(C)c(NC(=O)CC(C)(C)C)c2c(c1C)C(c1ccc(C(C)C)cc1)CO2 (configuration not stated)
82 | 220 to 221 °C | NC(=O)N1c2ccccc2CC(=NNc2ccccc2)c2ccccc21

Row | melting point | Compound
83 | 77 to 78 °C | COC(=O)c1ccc(S(C)(=O)=O)c(CBr)c1Cl
84 | 112 °C | COc1ccc2[nH]cc(Cc3cccnc3)c2c1
85 | 93 to 94 °C | COC(=O)CCc1ccc(NC(=O)c2cc(C(C)C)c(C(C)C)o2)cc1
86 | 254 to 259 °C | CCCOc1ccccc1C1=NC(=O)C2=NC=NC2=N1
87 | 174 to 175 °C | CC1(C)OC(=O)Nc2ccc(-c3cccc(Br)c3)cc21
88 | 73 to 74 °C | CCN(CC)CCOc1ccc2c(c1)c(C(=O)OCc1ccccc1)c(C)n2C
89 | 270 to 272 °C | Nc1cccc(-c2ccc(C3=CCCN(Cc4ccccc4)C3)cc2)n1
90 | 214 to 216 °C | Cc1cc(COc2cccc3c2CN(C2CCC(=O)NC2=O)C3=O)nn1C (configuration not stated)
91 | 146 to 149 °C | CCCc1nc2c(N)nc3cc(OCCCNC(=O)OC(C)(C)C)ccc3c2s1
92 | 233 to 235 °C | CC(CCC(N)=O)C1CC=C2C3=C(CCC21C)C1(C)CCC(O)C(C)(C)C1CC3 (configuration not stated)
93 | 200 °C | N=C(NO)c1cccc2nc(N[C@@H]3CCc4ccccc43)ccc12
94 | 251 °C | CCSCc1ccc(CC(N)C(=O)O)cc1 (racemic)
95 | 87 to 90 °C | COc1ccc(COc2ccccc2Br)cc1
96 | 244 to 245 °C | CN1C(N2CCCCC2)=C2N=c3cc(Cl)ccc3=C2Oc2ccccc21
97 | 115 to 117 °C | Cc1nc2cc(C(C)C(=O)O)ccc2o1 (configuration not stated)
98 | 197 to 199 °C | FC(F)(F)Oc1ccc2[nH]c(-c3cccnc3)nc2c1
99 | 160 °C | CCCCc1nc(SCC)c(CO)n1Cc1ccc(-c2ccccc2C(=O)O)cc1
100 | 170 to 171 °C | CCCOCCOc1cc2c(-c3ccccc3)c(CC(=O)Nc3ccc(Cl)cc3C(F)(F)F)c(=O)oc2cc1Cl
101 | 254 to 256 °C | COc1ccc(C(=O)Oc2ccc(C(=O)O)c(F)c2)cc1C12CC3CC(CC(C3)C1)C2
102 | 39 to 42 °C | CC(C)(C)OC(=O)NCCCCCC(=O)O
